# Experimental data: ChEMBL document CHEMBL1158029, “Bisabolanes from the red alga Laurencia scoparia” (J Nat Prod, 2006)
# Active and inactive are the calls of the source. No cut-off for these calls is given here.
# Tested on: Nippostrongylus brasiliensis
# Test: Antihelminthic activity against L4 parasitant stage of Nippostrongylus brasiliensis
# Format: functional, organism-based
EC50 [µM],SMILES,Activity
110,C=C(C[C@H](O)C=C(C)C)[C@@]1(O)CC[C@](C)(Br)[C@@H](Cl)C1,
,C=C(C)C(O)CCC(=C)[C@]1(O)CC[C@](C)(Br)[C@@H](Cl)C1 (relative stereo),inactive
,C[C@@H]1CC[C@]23[C@H]1CC[C@@]2(C)C[C@@](C)(O)[C@H]3C,inactive
,C[C@@H]1CC[C@]23[C@H]1CC[C@@]2(C)C[C@H](C)[C@]3(C)O,inactive
,C=C(C)C(O)CCC(=C)[C@@]1(O)CC[C@](C)(Br)[C@@H](Cl)C1 (relative stereo),inactive
